Test results as given in patent US20240299385A1 (ReWind Therapeutics NV, priority 2021, published 2024).

target: T1, human GPR17 receptor (Homo sapiens, UniProt Q13304); assay: Calcium mobilization functional assay (Fluo-8, FLIPR TETRA) in HEK-293 hGPR17 (Gα-q assay); type: cell-based; conditions: antagonism of MDL29,951 (~EC80) induced Ca2+ signal; cell line (HEK-293 hGPR17 or HEK-293 Suchi5 hGPR17) not given
T1 construct: host or cells: HEK-293
Outline: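 Fluo-8-loaded HEK-293 hGPR17 cells (60 min dye loading, room temperature) were preincubated with compound for twenty minutes, then challenged with agonist MDL29,951 at ~EC80, 500 nM. Intracellular calcium release via Gα-q was recorded as FLIPR fluorescence for a further 2 minutes; compounds tested in duplicate.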

T1 sequence (Q13304 whole entry): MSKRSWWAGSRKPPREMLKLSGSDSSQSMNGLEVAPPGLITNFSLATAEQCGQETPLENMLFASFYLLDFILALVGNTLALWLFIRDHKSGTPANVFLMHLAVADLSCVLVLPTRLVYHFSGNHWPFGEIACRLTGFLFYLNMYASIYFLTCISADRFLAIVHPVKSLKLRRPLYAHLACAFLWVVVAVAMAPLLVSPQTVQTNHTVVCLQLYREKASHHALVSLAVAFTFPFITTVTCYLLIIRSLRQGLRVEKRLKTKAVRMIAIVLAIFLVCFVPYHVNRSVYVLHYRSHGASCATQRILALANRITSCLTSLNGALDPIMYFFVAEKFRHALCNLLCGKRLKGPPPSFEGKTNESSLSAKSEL

Row | IC50 | SMILES
1 | 500 to 5000 nM | N#Cc1ccc(NS(=O)(=O)c2c[nH]cc2CC2CCCCC2)c(F)c1 [Cpd 616, N-(4-cyano-2-fluorophenyl)-4-(cyclohexylmethyl)-1H-pyrrole-3-sulfonamide]
2 | 5000 to 50000 nM | N#Cc1cnc(-c2cc(S(=O)(=O)Nc3cc(F)c(OC(F)F)cc3F)c[nH]2)s1 [Cpd 617, 5-(5-cyano-1,3-thiazol-2-yl)-N-[4-(difluoromethoxy)-2,5-difluorophenyl]-1H-pyrrole-3-sulfonamide]
3 | 500 to 5000 nM | O=S(=O)(Nc1cc(F)c(C(F)(F)F)cc1F)c1c[nH]c(-c2cnccn2)c1 [Cpd 618, N-[2,5-difluoro-4-(trifluoromethyl)phenyl]-5-pyrazin-2-yl-1H-pyrrole-3-sulfonamide]
4 | < 500 nM | O=S(=O)(Nc1cc(F)c(C(F)(F)F)cc1F)c1c[nH]c(-c2cccnn2)c1 [Cpd 619, N-[2,5-difluoro-4-(trifluoromethyl)phenyl]-5-pyridazin-3-yl-1H-pyrrole-3-sulfonamide]
5 | 500 to 5000 nM | Cn1cnc2c(-c3cc(S(=O)(=O)Nc4ccc(C#N)cc4F)c[nH]3)cccc21 [Cpd 620, N-(4-cyano-2-fluorophenyl)-5-(1-methylbenzimidazol-4-yl)-1H-pyrrole-3-sulfonamide]
6 | 500 to 5000 nM | O=S(=O)(Nc1cc(F)c(C(F)(F)F)cc1F)c1c[nH]c(C2CCC(F)(F)C2)c1 (stereo not drawn) [Cpd 621, 5-(3,3-difluorocyclopentyl)-N-[2,5-difluoro-4-(trifluoromethyl)phenyl]-1H-pyrrole-3-sulfonamide]
7 | 500 to 5000 nM | N#Cc1ccc(NS(=O)(=O)c2c[nH]c(CC3CC3)c2)c(F)c1 [Cpd 622, N-(4-cyano-2-fluorophenyl)-5-(cyclopropylmethyl)-1H-pyrrole-3-sulfonamide]
8 | 500 to 5000 nM | N#Cc1ccc(NS(=O)(=O)c2c[nH]cc2Cc2ccncc2)c(F)c1 [Cpd 624, N-(4-cyano-2-fluorophenyl)-4-(pyridin-4-ylmethyl)-1H-pyrrole-3-sulfonamide]
9 | 5000 to 50000 nM | N#Cc1ccc(NS(=O)(=O)c2c[nH]cc2CCc2ccccc2)c(F)c1 [Cpd 625, N-(4-cyano-2-fluorophenyl)-4-(2-phenylethyl)-1H-pyrrole-3-sulfonamide]
10 | < 500 nM | O=S(=O)(Nc1cc(F)c(C(F)(F)F)cc1F)c1c[nH]c(-c2ccccc2)c1F [Cpd 626, N-[2,5-difluoro-4-(trifluoromethyl)phenyl]-4-fluoro-5-phenyl-1H-pyrrole-3-sulfonamide]
11 | 500 to 5000 nM | O=S(=O)(Nc1cc(F)c(C(F)(F)F)cc1F)c1cc(-c2ccccc2)[nH]c1F [Cpd 627, N-[2,5-difluoro-4-(trifluoromethyl)phenyl]-2-fluoro-5-phenyl-1H-pyrrole-3-sulfonamide]
12 | < 500 nM | O=S(=O)(Nc1cc(F)c(OC(F)F)cc1F)c1c[nH]c(-c2cncs2)c1 [Cpd 628, N-[4-(difluoromethoxy)-2,5-difluorophenyl]-5-(1,3-thiazol-5-yl)-1H-pyrrole-3-sulfonamide]
13 | < 500 nM | O=S(=O)(Nc1cc(F)c(OC(F)F)cc1F)c1c[nH]c(-c2cscn2)c1 [Cpd 629, N-[4-(difluoromethoxy)-2,5-difluorophenyl]-5-(1,3-thiazol-4-yl)-1H-pyrrole-3-sulfonamide]
14 | 500 to 5000 nM | O=S(=O)(Nc1ncc(C(F)(F)F)s1)c1c[nH]c(-c2ccccc2)c1 [Cpd 630, 5-phenyl-N-[5-(trifluoromethyl)-1,3-thiazol-2-yl]-1H-pyrrole-3-sulfonamide]
15 | 500 to 5000 nM | N#Cc1cnc(NS(=O)(=O)c2c[nH]c(-c3ccccc3)c2)s1 [Cpd 631, N-(5-cyano-1,3-thiazol-2-yl)-5-phenyl-1H-pyrrole-3-sulfonamide]
16 | < 500 nM | N#CCOc1cc(F)c(NS(=O)(=O)c2c[nH]c(-c3ccccc3)c2F)cc1F [Cpd 632, N-[4-(cyanomethoxy)-2,5-difluorophenyl]-4-fluoro-5-phenyl-1H-pyrrole-3-sulfonamide]
17 | < 500 nM | COc1csc(-c2cc(S(=O)(=O)Nc3cc(F)c(OC(F)F)cc3F)c[nH]2)n1 [Cpd 633, N-[4-(difluoromethoxy)-2,5-difluorophenyl]-5-(4-methoxy-1,3-thiazol-2-yl)-1H-pyrrole-3-sulfonamide]
18 | < 500 nM | Cc1csc(-c2cc(S(=O)(=O)Nc3cc(F)c(OC(F)F)cc3F)c[nH]2)n1 [Cpd 634, N-[4-(difluoromethoxy)-2,5-difluorophenyl]-5-(4-methyl-1,3-thiazol-2-yl)-1H-pyrrole-3-sulfonamide]
19 | < 500 nM | O=S(=O)(Nc1cc(F)c(OC(F)F)cc1F)c1c[nH]c(-c2ccsn2)c1 [Cpd 635, N-[4-(difluoromethoxy)-2,5-difluorophenyl]-5-(1,2-thiazol-3-yl)-1H-pyrrole-3-sulfonamide]
20 | < 500 nM | O=S(=O)(Nc1cc(F)c(OC(F)F)cc1F)c1c[nH]c(-c2ncco2)c1 [Cpd 636, N-[4-(difluoromethoxy)-2,5-difluorophenyl]-5-(1,3-oxazol-2-yl)-1H-pyrrole-3-sulfonamide]
21 | 500 to 5000 nM | O=S(=O)(Nc1cc(F)c(OC(F)F)cc1F)c1c[nH]c(-c2ncc(C(F)(F)F)s2)c1 [Cpd 637, N-[4-(difluoromethoxy)-2,5-difluorophenyl]-5-[5-(trifluoromethyl)-1,3-thiazol-2-yl]-1H-pyrrole-3-sulfonamide]
22 | < 500 nM | O=S(=O)(Nc1cc(F)c(OC(F)F)cc1F)c1c[nH]c(-c2ccns2)c1 [Cpd 638, N-[4-(difluoromethoxy)-2,5-difluorophenyl]-5-(1,2-thiazol-5-yl)-1H-pyrrole-3-sulfonamide]
23 | < 500 nM | O=S(=O)(Nc1cc(F)c(OC(F)F)cc1F)c1c[nH]c(-c2cnsc2)c1 [Cpd 639, N-[4-(difluoromethoxy)-2,5-difluorophenyl]-5-(1,2-thiazol-4-yl)-1H-pyrrole-3-sulfonamide]
24 | < 500 nM | N#Cc1cc(F)c(NS(=O)(=O)c2c[nH]c(-c3ccoc3)c2)cc1F [Cpd 640, N-(4-cyano-2,5-difluorophenyl)-5-(furan-3-yl)-1H-pyrrole-3-sulfonamide]
25 | < 500 nM | N#Cc1ccc(NS(=O)(=O)c2c[nH]c(-c3cncs3)c2)c(F)c1 [Cpd 641, N-(4-cyano-2-fluorophenyl)-5-(1,3-thiazol-5-yl)-1H-pyrrole-3-sulfonamide]
26 | < 500 nM | N#Cc1cc(F)c(NS(=O)(=O)c2c[nH]c(-c3cscn3)c2)cc1F [Cpd 642, N-(4-cyano-2,5-difluorophenyl)-5-(1,3-thiazol-4-yl)-1H-pyrrole-3-sulfonamide]
27 | < 500 nM | [2H]C([2H])(c1cccc(F)c1)c1c[nH]cc1S(=O)(=O)Nc1cc(F)c(C#N)cc1F [Cpd 643, N-(4-cyano-2,5-difluorophenyl)-4-((3-fluorophenyl)methyl-d2)-1H-pyrrole-3-sulfonamide]
28 | 5000 to 50000 nM | N#Cc1sc(NS(=O)(=O)c2c[nH]c(-c3ccccc3)c2)cc1F [Cpd 644, N-(5-cyano-4-fluorothiophen-2-yl)-5-phenyl-1H-pyrrole-3-sulfonamide]
29 | < 500 nM | N#Cc1ccc(F)c(-c2cc(S(=O)(=O)Nc3cc(F)c(C#N)cc3F)c[nH]2)c1 [Cpd 645, N-(4-cyano-2,5-difluorophenyl)-5-(5-cyano-2-fluorophenyl)-1H-pyrrole-3-sulfonamide]
30 | < 500 nM | N#Cc1cc(F)c(NS(=O)(=O)c2c[nH]c(-c3ccsn3)c2)cc1F [Cpd 646, N-(4-cyano-2,5-difluorophenyl)-5-(1,2-thiazol-3-yl)-1H-pyrrole-3-sulfonamide]
